# PMC8550792, “Evolution of kinase polypharmacology across HSP90 drug discovery” (Cell Chemical Biology, 2021)
# Experiments:
# Assay in all cases: biochemical
# Type in all cases: biochemical
# [1] = molecular target: T1, 382 unique human kinases (Homo sapiens, UniProt O95747); details: kinase OSR1/OXSR1, compound 10 uM; for remaining activity at 10 µM: read-out: % Enzyme Activity (relative to DMSO controls)
# T1 construct: purchased Reaction Biology (HotSpot contract assay)
# [2] = molecular target: T2, 382 unique human kinases (Homo sapiens, UniProt Q8WXR4); details: kinase MYO3b, compound 10 uM; for remaining activity at 10 µM: read-out: % Enzyme Activity (relative to DMSO controls)
# T2 construct: purchased Reaction Biology (HotSpot contract assay)
# T2 sequence (Q8WXR4 1-1341): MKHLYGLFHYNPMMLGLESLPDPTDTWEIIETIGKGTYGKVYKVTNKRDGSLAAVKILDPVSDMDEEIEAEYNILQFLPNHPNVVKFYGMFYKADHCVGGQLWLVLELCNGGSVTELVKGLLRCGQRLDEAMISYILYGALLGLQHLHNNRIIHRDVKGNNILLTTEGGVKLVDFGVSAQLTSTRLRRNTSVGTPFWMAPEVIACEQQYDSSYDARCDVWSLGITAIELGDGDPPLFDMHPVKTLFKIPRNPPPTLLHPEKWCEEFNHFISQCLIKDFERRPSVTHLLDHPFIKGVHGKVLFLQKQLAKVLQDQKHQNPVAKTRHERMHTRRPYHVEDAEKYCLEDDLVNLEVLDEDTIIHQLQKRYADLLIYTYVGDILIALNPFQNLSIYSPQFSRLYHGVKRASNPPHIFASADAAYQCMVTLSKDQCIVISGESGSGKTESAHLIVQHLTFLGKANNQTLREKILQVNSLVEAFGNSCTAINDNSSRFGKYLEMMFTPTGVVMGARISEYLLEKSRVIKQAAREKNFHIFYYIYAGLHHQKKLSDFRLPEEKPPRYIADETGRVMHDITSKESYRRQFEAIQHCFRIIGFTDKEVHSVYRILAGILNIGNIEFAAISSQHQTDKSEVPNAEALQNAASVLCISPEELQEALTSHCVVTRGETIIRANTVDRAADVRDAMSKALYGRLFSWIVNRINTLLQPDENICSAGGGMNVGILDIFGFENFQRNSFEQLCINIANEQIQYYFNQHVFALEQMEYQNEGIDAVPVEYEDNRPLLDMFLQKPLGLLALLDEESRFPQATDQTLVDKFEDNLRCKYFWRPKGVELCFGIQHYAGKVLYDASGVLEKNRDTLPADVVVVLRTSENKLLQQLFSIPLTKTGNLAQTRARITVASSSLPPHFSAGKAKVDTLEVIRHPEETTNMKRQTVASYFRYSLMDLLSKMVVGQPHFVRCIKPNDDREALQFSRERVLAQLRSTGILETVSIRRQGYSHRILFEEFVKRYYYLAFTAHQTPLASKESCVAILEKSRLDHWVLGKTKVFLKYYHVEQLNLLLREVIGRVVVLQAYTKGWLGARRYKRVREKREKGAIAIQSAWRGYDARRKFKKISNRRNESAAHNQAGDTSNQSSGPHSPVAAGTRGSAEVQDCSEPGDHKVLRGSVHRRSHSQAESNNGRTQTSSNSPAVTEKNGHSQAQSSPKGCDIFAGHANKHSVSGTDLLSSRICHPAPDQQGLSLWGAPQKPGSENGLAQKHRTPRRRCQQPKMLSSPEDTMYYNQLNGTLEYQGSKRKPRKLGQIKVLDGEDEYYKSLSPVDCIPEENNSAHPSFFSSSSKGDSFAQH
# [3] = molecular target: T3, 382 unique human kinases (Homo sapiens, UniProt P00533, G719S); details: EGFR (G719S), 10 uM; for remaining activity at 10 µM: read-out: % Enzyme Activity (relative to DMSO controls)
# T3 construct: purchased Reaction Biology (HotSpot contract assay)
# [4] = molecular target: T4, 382 unique human kinases (Homo sapiens, UniProt Q6PHR2); details: ULK3, 10 uM; for remaining activity at 10 µM: read-out: % Enzyme Activity (relative to DMSO controls)
# T4 construct: purchased Reaction Biology (HotSpot contract assay)
# T4 sequence (Q6PHR2 1-472): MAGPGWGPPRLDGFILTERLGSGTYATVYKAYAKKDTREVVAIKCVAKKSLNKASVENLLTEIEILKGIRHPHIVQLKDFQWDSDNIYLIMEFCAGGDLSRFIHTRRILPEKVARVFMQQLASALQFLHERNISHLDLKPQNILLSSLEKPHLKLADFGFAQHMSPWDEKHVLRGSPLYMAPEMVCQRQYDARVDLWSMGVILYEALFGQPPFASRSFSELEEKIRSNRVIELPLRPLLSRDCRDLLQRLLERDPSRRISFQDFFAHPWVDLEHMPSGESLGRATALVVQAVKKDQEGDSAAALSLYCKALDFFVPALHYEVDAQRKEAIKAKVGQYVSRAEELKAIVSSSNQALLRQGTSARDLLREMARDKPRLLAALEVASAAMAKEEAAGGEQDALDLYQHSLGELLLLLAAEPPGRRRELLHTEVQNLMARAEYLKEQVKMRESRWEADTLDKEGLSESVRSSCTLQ
# [5] = molecular target: T5, 382 unique human kinases (Homo sapiens, UniProt O75716); details: STK16, [ATP] 5 µM, compound 10 uM; for remaining activity at 10 µM: read-out: % Enzyme Activity (relative to DMSO controls)
# T5 construct: purchased Reaction Biology (HotSpot contract assay)
# T5 sequence (O75716 whole entry): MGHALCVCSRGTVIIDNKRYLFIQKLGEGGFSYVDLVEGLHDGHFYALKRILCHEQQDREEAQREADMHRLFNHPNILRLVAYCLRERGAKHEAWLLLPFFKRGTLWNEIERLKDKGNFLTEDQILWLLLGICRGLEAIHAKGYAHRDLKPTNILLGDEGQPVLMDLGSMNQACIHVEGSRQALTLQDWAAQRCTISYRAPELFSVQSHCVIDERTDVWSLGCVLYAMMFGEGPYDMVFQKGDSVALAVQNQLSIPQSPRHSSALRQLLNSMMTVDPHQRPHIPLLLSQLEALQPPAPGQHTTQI
# [6] = molecular target: T6, 382 unique human kinases (Homo sapiens, UniProt Q06418); details: TYRO3/SKY, 10 uM; for remaining activity at 10 µM: read-out: % Enzyme Activity (relative to DMSO controls)
# T6 construct: purchased Reaction Biology (HotSpot contract assay)
# T6 sequence (Q06418 41-890): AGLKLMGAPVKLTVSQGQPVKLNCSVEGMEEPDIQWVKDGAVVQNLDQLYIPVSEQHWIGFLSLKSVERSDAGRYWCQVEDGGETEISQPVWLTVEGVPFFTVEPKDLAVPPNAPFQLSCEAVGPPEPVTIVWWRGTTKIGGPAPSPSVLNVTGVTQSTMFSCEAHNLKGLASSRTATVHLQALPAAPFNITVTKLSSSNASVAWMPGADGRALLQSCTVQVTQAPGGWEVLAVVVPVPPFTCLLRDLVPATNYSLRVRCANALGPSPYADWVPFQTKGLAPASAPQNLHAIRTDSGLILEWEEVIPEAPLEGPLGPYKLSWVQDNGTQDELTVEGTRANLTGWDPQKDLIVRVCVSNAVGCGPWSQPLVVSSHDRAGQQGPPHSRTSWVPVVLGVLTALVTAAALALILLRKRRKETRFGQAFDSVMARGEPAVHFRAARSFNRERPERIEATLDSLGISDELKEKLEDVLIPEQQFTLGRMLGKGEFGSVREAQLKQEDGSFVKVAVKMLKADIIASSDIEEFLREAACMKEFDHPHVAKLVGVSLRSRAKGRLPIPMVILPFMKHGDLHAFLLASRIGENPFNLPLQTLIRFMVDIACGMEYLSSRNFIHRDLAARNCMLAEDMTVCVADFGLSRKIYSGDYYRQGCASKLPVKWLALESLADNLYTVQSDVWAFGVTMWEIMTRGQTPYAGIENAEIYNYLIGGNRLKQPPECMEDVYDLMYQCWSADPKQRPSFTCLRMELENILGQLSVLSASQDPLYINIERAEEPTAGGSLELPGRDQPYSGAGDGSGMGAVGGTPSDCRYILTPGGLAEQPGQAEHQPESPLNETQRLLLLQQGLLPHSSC
# T1 sequence (O95747 whole entry): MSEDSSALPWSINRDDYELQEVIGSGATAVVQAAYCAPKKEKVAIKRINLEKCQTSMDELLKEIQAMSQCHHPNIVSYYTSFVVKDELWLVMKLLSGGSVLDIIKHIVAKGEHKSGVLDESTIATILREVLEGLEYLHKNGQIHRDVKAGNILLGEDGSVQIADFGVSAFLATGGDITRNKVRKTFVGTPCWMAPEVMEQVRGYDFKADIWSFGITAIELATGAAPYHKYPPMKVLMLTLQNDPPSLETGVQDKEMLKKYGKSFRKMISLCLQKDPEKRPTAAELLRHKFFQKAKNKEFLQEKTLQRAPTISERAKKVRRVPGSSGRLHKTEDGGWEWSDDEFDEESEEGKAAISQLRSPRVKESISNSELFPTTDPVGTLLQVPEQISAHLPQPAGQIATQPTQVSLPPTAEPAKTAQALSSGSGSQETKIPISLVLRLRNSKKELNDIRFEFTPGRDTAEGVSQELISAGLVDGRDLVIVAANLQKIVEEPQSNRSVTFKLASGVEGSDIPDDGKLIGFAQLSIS
structure (smiles),measurement,setting,value
CC(C)c1cc(-c2n[nH]c(=O)n2-c2ccc3c(ccn3C)c2)c(O)cc1O [Ganetespib (STA9090)],remaining activity at 10 µM,[1],82.7%
same,remaining activity at 10 µM,[2],88.2%
CC(C)c1cc(-c2n[nH]c(=O)n2-c2ccc3c(ccn3C)c2)c(O)cc1O [Ganetespib],remaining activity at 10 µM,[3],99.7%
same,remaining activity at 10 µM,[4],100%
same,remaining activity at 10 µM,[5],32.4%
same,remaining activity at 10 µM,[6],102%
CCNC(=O)c1noc(-c2cc(C(C)C)c(O)cc2O)c1-c1ccc(CN2CCOCC2)cc1 [Luminespib (AUY-922)],% Enzyme Activity (relative to DMSO controls),[1],102.56%
same,remaining activity at 10 µM,[1],103%
same,% Enzyme Activity (relative to DMSO controls),[2],111.45%
same,remaining activity at 10 µM,[2],113%
CCNC(=O)c1noc(-c2cc(C(C)C)c(O)cc2O)c1-c1ccc(CN2CCOCC2)cc1 [Luminespib],% Enzyme Activity (relative to DMSO controls),[3],98.84%
same,remaining activity at 10 µM,[3],99.4%
same,% Enzyme Activity (relative to DMSO controls),[4],91.59%
same,remaining activity at 10 µM,[4],94.8%
same,% Enzyme Activity (relative to DMSO controls),[5],98.01%
same,remaining activity at 10 µM,[5],98.4%
same,% Enzyme Activity (relative to DMSO controls),[6],106.19%
same,remaining activity at 10 µM,[6],107%
